Data: patent publication US20260262635A1, “BAR COMPOSITION HAVING ENHANCED ANTIMICROBIAL ACTIVITY” (Conopco, Inc., d/b/a UNILEVER, priority 2021, published 2026)

System: S. aureus ATCC 6538
Assay: Time-kill assay adapted from ASTM E2315-16, S. aureus
Type: cell-based
Settings: S. aureus and E. coli, 30 seconds of contact
Protocol: Aqueous slurries were prepared whereby gratings from the bars made in the Samples of Table I were mixed with water to form a test solution containing 10% by weight of the initial bar component. In the second method, raw bar components, as depicted in the Samples in Table II, were mixed with water to form a test solution containing a total of 10% raw bar component to simulate an aqueous slurry of a bar composition. For each sample, aqueous slurries were mixed at 50° C. to simulate customary consumer washing conditions.
As to the microbes, E. coli ATCC 10536 and S. aureus ATCC 6538 were used in this study to represent Gram negative and Gram positive bacteria, respectively. The bacteria were stored at −80° C. Fresh isolates were cultured twice on Tryptic Soy Agar plates for 24 hours at 37° C. before each experiment.
Test solutions were prepared. In the first method and for the aqueous slurries made from the bar compositions described in Table I, a composition (typically containing up to 15% surfactant) was mixed with water to form a test solution containing 10% weight percent of the initial formulation. In the second method and for the raw ingredients combined in Table II, the same were mixed with water at levels that simulate a 10% dilution of the slurries. In each assessment, test solutions were heated and mixed at […]
The log reduction was calculated using the formula: […]

CC(O)C(=O)O (stereo not shown) [lactic acid, Lactic acid]
antimicrobial reduction / efficacy (in words): performed poorly against S. aureus
